17 compounds from PubChem BioAssay (NCI) can be followed below.

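Assay format: 96-well plates, 48-hour exposure. Definition used: TGI = concentration required for complete inhibition of growth.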

Some test systems named below: MDA-MB-231 breast; HT29 colon; MALME-3M melanoma; SW-620 colon; PC-3 prostate; NCI-H522 lung; U251 CNS; TK-10 renal; UO-31 renal; CCRF-CEM leukemia.
Holding throughout (assay): DTP human tumour cell line panel, 48 h

Take `COc1cc(Oc2nc3ccccc3nc2C(=O)O)cc(OC)c1OC`: the TGI in the experiment on MDA-MB-231 breast, in the experiment with HT29 colon, in the experiment with MALME-3M melanoma, with SW-620 colon, in the experiment on PC-3 prostate and with NCI-H522 lung was above 100 µM each time. Moreover, the TGI with U251 CNS, with TK-10 renal, with UO-31 renal and in the experiment with CCRF-CEM leukemia was above 100 µM each time.

With `Nc1ccc2c(c1)C1Oc3ccccc3CC1CO2` (stereo not given), the TGI in the experiment with MDA-MB-231 breast, with HT29 colon, in the experiment on MALME-3M melanoma, in the experiment on SW-620 colon, with PC-3 prostate and in the experiment with NCI-H522 lung was above 100 µM each time. The TGI in the experiment on U251 CNS, in the experiment on TK-10 renal, with UO-31 renal and in the experiment with CCRF-CEM leukemia was above 100 µM each time.

For `CC(C)(C)c1cc(C(O)(C(=O)O)C(=O)O)cc(C(C)(C)C)c1O`, the TGI in the experiment on MDA-MB-231 breast, with HT29 colon, in the experiment with MALME-3M melanoma, with SW-620 colon, in the experiment with PC-3 prostate and in the experiment on NCI-H522 lung was above 100 µM each time. For the same compound, the TGI with U251 CNS, in the experiment with TK-10 renal, with UO-31 renal and in the experiment on CCRF-CEM leukemia was above 100 µM throughout.

As to `Brc1ccc2c(-c3nc(-c4c[nH]c5ccccc45)cs3)c[nH]c2c1`, the TGI with MDA-MB-231 breast was above 89.4 µM; with HT29 colon, above 100 µM; in the experiment with MALME-3M melanoma it was above 100 µM; in the experiment with SW-620 colon, above 86.8 µM; in the experiment with PC-3 prostate it was above 91.2 µM; in the experiment with NCI-H522 lung, above 100 µM. Moreover, the TGI was above 100 µM in the experiment on U251 CNS, 45.8 µM with TK-10 renal, above 100 µM in the experiment on UO-31 renal and above 100 µM in the experiment with CCRF-CEM leukemia.

`COCn1c(C)c(C)c2c(=O)oc(=O)[nH]c21`: the TGI in the experiment with MDA-MB-231 breast, in the experiment with HT29 colon, in the experiment with MALME-3M melanoma, with SW-620 colon, with PC-3 prostate and in the experiment with NCI-H522 lung was above 100 µM throughout. The TGI in the experiment with U251 CNS, in the experiment on TK-10 renal, in the experiment on UO-31 renal and in the experiment on CCRF-CEM leukemia was above 100 µM in each case.

Regarding `COc1cc(C2c3cc4c(cc3C(O)C3CCC(=O)N23)OCO4)cc(OC)c1OC` (stereo not given), the TGI with MDA-MB-231 breast is above 100 µM; in the experiment on HT29 colon it was 76.7 µM; in the experiment with MALME-3M melanoma it was above 100 µM; in the experiment on SW-620 colon, above 100 µM; in the experiment on PC-3 prostate, above 100 µM; in the experiment on NCI-H522 lung, 89.9 µM. Moreover, the TGI in the experiment with U251 CNS is 82.8 µM; with TK-10 renal, above 100 µM; in the experiment with UO-31 renal, 71.2 µM; with CCRF-CEM leukemia, above 100 µM.

For `Cc1ccc(S(=O)(=O)NC(=O)NC(Cc2c[nH]c3ccccc23)C(=O)O)cc1` (stereo not given), the TGI with MDA-MB-231 breast, in the experiment with HT29 colon, in the experiment with MALME-3M melanoma, in the experiment on SW-620 colon, with PC-3 prostate and in the experiment on NCI-H522 lung was above 100 µM in each case. Further, the TGI with U251 CNS, with TK-10 renal, in the experiment with UO-31 renal and in the experiment with CCRF-CEM leukemia was above 100 µM throughout.

Consider `O=C1NN=C(c2ccc(Cl)cc2)CC1C1C(=O)N(c2ccccc2)N=C1c1ccccc1` (stereo not given), for which the TGI in the experiment with MDA-MB-231 breast was above 100 µM; in the experiment with HT29 colon, above 100 µM; in the experiment with MALME-3M melanoma, above 100 µM; in the experiment with SW-620 colon, above 100 µM; in the experiment with PC-3 prostate it was 72.3 µM; in the experiment on NCI-H522 lung, 65.2 µM. Besides, the TGI with U251 CNS was 82.9 µM; in the experiment with TK-10 renal, above 100 µM; with UO-31 renal, 56.6 µM; in the experiment on CCRF-CEM leukemia, 76.3 µM.

On to `CCCSc1cc(Cl)c(C)cc1S(=O)(=O)n1ccnc1OCCCN(C)C`, for which the TGI in the experiment with MDA-MB-231 breast, with HT29 colon, in the experiment on MALME-3M melanoma, with SW-620 colon, in the experiment on PC-3 prostate and in the experiment with NCI-H522 lung was above 100 µM in each case. Besides, the TGI in the experiment with U251 CNS, in the experiment with TK-10 renal, in the experiment with UO-31 renal and in the experiment with CCRF-CEM leukemia was above 100 µM throughout.

Take `O=[N+]([O-])c1ccc2c(c1)nc(Cc1ccccc1)n2C[C@@H]1CCCN2CCCCC12` (stereo not given in full): the TGI in the experiment with MDA-MB-231 breast is 95.1 µM; in the experiment with HT29 colon, 49.2 µM; in the experiment with MALME-3M melanoma, 29.2 µM; with SW-620 colon, above 100 µM; in the experiment with PC-3 prostate, above 100 µM; in the experiment on NCI-H522 lung, 80 µM. Besides, the TGI was above 100 µM with U251 CNS, above 100 µM in the experiment on TK-10 renal, 22.8 µM in the experiment with UO-31 renal and 50.2 µM in the experiment on CCRF-CEM leukemia.

For `CCNC(=S)N/N=C/c1cc(OC)ccc1O`, the TGI with MDA-MB-231 breast, with HT29 colon, with MALME-3M melanoma, in the experiment on SW-620 colon, in the experiment with PC-3 prostate and in the experiment on NCI-H522 lung was above 100 µM each time. For the same compound, the TGI in the experiment with U251 CNS, in the experiment on TK-10 renal, with UO-31 renal and in the experiment on CCRF-CEM leukemia was above 100 µM each time.

As to `COc1cc2c(cc1OCCCC(=O)Nc1cc(C(=O)Nc3cc(C(=O)Nc4cc(C(=O)NCCCN(C)C)n(C)c4)n(C)c3)n(C)c1)N=C[C@@H]1CCCN1C2=O`, the TGI in the experiment on MDA-MB-231 breast was found to be 5.53 µM; with HT29 colon, 4.1 µM; in the experiment on MALME-3M melanoma, 3.39 µM; with SW-620 colon it was 5.98 µM; in the experiment on PC-3 prostate, 6 µM; with NCI-H522 lung, 0.427 µM. Moreover, the TGI in the experiment on U251 CNS is 3.01 µM; in the experiment on TK-10 renal, 3.49 µM; in the experiment with UO-31 renal, 3.06 µM; in the experiment with CCRF-CEM leukemia, above 100 µM.

For `O=C(O)CC(NC(=O)Nc1ccc([N+](=O)[O-])cc1)C(=O)Nc1ccc([N+](=O)[O-])cc1` (stereo not given), the TGI in the experiment with MDA-MB-231 breast, in the experiment on HT29 colon, with MALME-3M melanoma, with SW-620 colon, in the experiment with PC-3 prostate and with NCI-H522 lung was above 100 µM each time. Also, the TGI in the experiment with U251 CNS, in the experiment on TK-10 renal, in the experiment with UO-31 renal and with CCRF-CEM leukemia was above 100 µM throughout.

Turning to `Cc1cc(NS(=O)(=O)c2ccc(NC(=O)c3ccc4nc5ccccc5c(Nc5ccc(S(=O)(=O)N=C(N)N)cc5)c4c3)cc2)no1`, the TGI in the experiment on MDA-MB-231 breast was found to be 29.4 µM; in the experiment with HT29 colon, 38.2 µM; in the experiment with MALME-3M melanoma, 29.4 µM; with SW-620 colon, 48.5 µM; in the experiment on PC-3 prostate, 39.3 µM; with NCI-H522 lung, 34.8 µM. Moreover, the TGI in the experiment with U251 CNS was 30 µM; in the experiment on TK-10 renal it was 41.4 µM; in the experiment on UO-31 renal, 32.1 µM; with CCRF-CEM leukemia it was 34.3 µM.

For `NNC(=O)CC(=O)Nc1ccc(Cl)cc1`, the TGI in the experiment on MDA-MB-231 breast, with HT29 colon, in the experiment on MALME-3M melanoma, in the experiment with SW-620 colon, in the experiment on PC-3 prostate and in the experiment with NCI-H522 lung was above 100 µM each time. Further, the TGI with U251 CNS, in the experiment with TK-10 renal, in the experiment on UO-31 renal and in the experiment on CCRF-CEM leukemia was above 100 µM each time.

For the compound `CCCC1NC(C#N)(C#N)C(CCC)NC1(C#N)C#N` (stereo not given), the TGI with MDA-MB-231 breast is above 89.7 µM; in the experiment on HT29 colon it was above 55.7 µM; in the experiment with MALME-3M melanoma, above 100 µM; in the experiment on SW-620 colon it was above 100 µM; with PC-3 prostate it was above 88.7 µM; in the experiment on NCI-H522 lung, 1.51 µM. The TGI is above 100 µM with U251 CNS, above 100 µM with TK-10 renal, above 100 µM in the experiment with UO-31 renal and 17.8 µM in the experiment on CCRF-CEM leukemia.

As to `COc1ccc2oc(S(=O)(=O)N3CC(CCl)c4ccc([N+](=O)[O-])cc43)cc2c1` (stereo not given), the TGI in the experiment on MDA-MB-231 breast was 1.23 µM; in the experiment on HT29 colon, 68 µM; in the experiment on MALME-3M melanoma, 32.8 µM; in the experiment on SW-620 colon, above 100 µM; with PC-3 prostate it was 11.5 µM; in the experiment on NCI-H522 lung, 0.246 µM. Besides, the TGI in the experiment on U251 CNS was 0.348 µM; in the experiment with TK-10 renal it was above 55.2 µM; in the experiment with UO-31 renal it was above 40.3 µM; in the experiment with CCRF-CEM leukemia it was above 100 µM.
